ChEMBL document CHEMBL1201862, “PubChem BioAssay data set” (2004)
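The compound was tested at five concentrations on cells cultured in 96-well plates, with a 48-hour exposure period. GI50 is the concentration that inhibits growth by half.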 Activity calls are given as the source filed them. No stated cut-off is given here; in the data, active = GI50 up to about 1.1 µM and inactive = higher.

What was measured:
Assay in all cases: NCI anticancer screen, dose series, 48 h
A549 = system: A549
COLO 205 = system: COLO 205
HOP-62 = system: HOP-62
K562 = system: K562
LOX IMVI = system: LOX IMVI
M14 = system: M14
MOLT-4 = system: MOLT-4
NCI-H460 = system: NCI-H460
OVCAR-3 = system: OVCAR-3
SF-295 = system: SF-295
SK-OV-3 = system: SK-OV-3
SW-620 = system: SW-620
TK-10 = system: TK-10
UO-31 = system: UO-31
HCC 2998 = system: HCC 2998
NCI-H522 = system: NCI-H522
SN12C = system: SN12C

Measured: GI50

CC(C)(C)c1cc(CCC(=O)Nc2ccc(Cl)cc2)nc(NC#N)n1
inactive: A549 > 100 µM | COLO 205 > 100 µM | HOP-62 > 100 µM | K562 > 100 µM | LOX IMVI > 100 µM | M14 > 100 µM | MOLT-4 > 100 µM | NCI-H460 > 100 µM | OVCAR-3 > 100 µM | SF-295 > 100 µM | SK-OV-3 > 100 µM | SW-620 > 100 µM | TK-10 > 100 µM | UO-31 > 100 µM

C[N+](C)(C)CC(=O)N/N=C/c1oc(-c2cccc([N+](=O)[O-])c2)c(-c2cccc([N+](=O)[O-])c2)c1[N+](=O)[O-]
inactive: A549 > 100 µM | COLO 205 > 100 µM | HCC 2998 > 100 µM | HOP-62 > 100 µM | K562 > 10 µM | M14 > 100 µM | MOLT-4 > 10 µM | NCI-H460 > 100 µM | NCI-H522 50.7 µM | SK-OV-3 > 100 µM | SN12C > 100 µM | SW-620 31.3 µM | TK-10 > 100 µM | UO-31 79.1 µM

COC(=O)Cc1cc(OC)c(OC)cc1Br
inactive: A549 > 100 µM | COLO 205 > 100 µM | HCC 2998 > 100 µM | HOP-62 > 100 µM | K562 > 100 µM | M14 > 100 µM | MOLT-4 > 100 µM | NCI-H460 > 100 µM | NCI-H522 > 100 µM | OVCAR-3 > 100 µM | SF-295 > 100 µM | SK-OV-3 > 100 µM | SN12C > 100 µM | SW-620 > 100 µM | TK-10 > 100 µM | UO-31 > 100 µM

NC1=NN(c2ccccc2)C(=O)C1/C(=N\NC(=O)c1cc2ccccc2cc1O)C(=O)Nc1ccc(Cl)c(Cl)c1 (stereo not drawn)
inactive: A549 42.8 µM | COLO 205 18.9 µM | HCC 2998 43 µM | HOP-62 65.2 µM | K562 28.4 µM | LOX IMVI 24.5 µM | M14 19.6 µM | MOLT-4 22.9 µM | NCI-H460 31.3 µM | NCI-H522 16.5 µM | OVCAR-3 5.57 µM | SF-295 35.8 µM | SN12C 35.6 µM | SW-620 33.1 µM | TK-10 55.6 µM | UO-31 17.6 µM

CSc1s[s+]c(SC)c1[O-]
inactive: A549 > 100 µM | COLO 205 27.2 µM | HCC 2998 > 100 µM | HOP-62 > 100 µM | K562 3.94 µM | M14 17.5 µM | MOLT-4 13.3 µM | NCI-H460 29.3 µM | NCI-H522 15.7 µM | OVCAR-3 26.5 µM | SF-295 47.9 µM | SK-OV-3 > 100 µM | SN12C 22.1 µM | SW-620 17.8 µM | TK-10 > 100 µM | UO-31 > 100 µM

CCP(C)(C)=O
inactive: A549 > 100 µM | COLO 205 > 100 µM | HCC 2998 > 100 µM | HOP-62 > 100 µM | K562 > 100 µM | LOX IMVI > 100 µM | M14 > 100 µM | MOLT-4 > 100 µM | NCI-H460 > 100 µM | OVCAR-3 > 100 µM | SF-295 > 100 µM | SK-OV-3 > 100 µM | SN12C > 100 µM | SW-620 > 100 µM | TK-10 > 100 µM | UO-31 > 10 µM

O=C1C=C(Nc2ccc(Br)cc2)c2ccccc2C1=O
inactive: A549 12.7 µM | COLO 205 17 µM | HCC 2998 15 µM | HOP-62 16.9 µM | K562 13.9 µM | M14 14.9 µM | MOLT-4 10.9 µM | NCI-H460 7.28 µM | NCI-H522 11.3 µM | OVCAR-3 7.1 µM | SF-295 15.8 µM | SK-OV-3 16.8 µM | SN12C 15.2 µM | SW-620 12.9 µM | TK-10 19.6 µM | UO-31 16 µM

COC(=O)C1=C(c2ccc3c(c2)OCO3)O[C@H](c2ccc3c(c2)OCO3)[C@H]1COC(C)=O
inactive: A549 46.7 µM | COLO 205 15.3 µM | HCC 2998 35.7 µM | HOP-62 58.5 µM | K562 35.4 µM | LOX IMVI 48.4 µM | M14 32.6 µM | MOLT-4 35.2 µM | NCI-H460 63.5 µM | OVCAR-3 55.6 µM | SF-295 34.4 µM | SK-OV-3 41 µM | SN12C 45.2 µM | SW-620 > 100 µM | TK-10 46.7 µM | UO-31 38.7 µM

O=c1[c-](-c2ccccc2)[se]c(-c2ccccc2)[n+]1-c1ccccc1
inactive: A549 16.3 µM | COLO 205 15.5 µM | HCC 2998 6.35 µM | K562 16.8 µM | LOX IMVI 13.3 µM | M14 4.99 µM | MOLT-4 18.8 µM | NCI-H460 15.9 µM | NCI-H522 2.91 µM | OVCAR-3 10 µM | SF-295 3.61 µM | SK-OV-3 24.2 µM | SN12C 5.05 µM | SW-620 12.5 µM | TK-10 8.32 µM | UO-31 3.08 µM

NC1=NS(=O)(=O)Nc2[nH]c(-c3ccccc3)nc21
inactive: A549 > 100 µM | COLO 205 > 100 µM | HCC 2998 > 100 µM | K562 > 100 µM | LOX IMVI > 100 µM | M14 > 100 µM | MOLT-4 > 100 µM | NCI-H460 > 100 µM | NCI-H522 > 100 µM | OVCAR-3 > 100 µM | SF-295 > 100 µM | SK-OV-3 > 100 µM | SN12C > 100 µM | SW-620 > 100 µM | TK-10 > 100 µM | UO-31 > 100 µM

N#CCc1ccc(/C(C#N)=C2/OC(=N)C(c3ccc(CC#N)cc3)C2=O)cc1 (stereo not drawn)
inactive: A549 > 100 µM | COLO 205 > 100 µM | HOP-62 > 100 µM | K562 > 100 µM | LOX IMVI > 100 µM | M14 > 100 µM | MOLT-4 > 100 µM | NCI-H460 > 100 µM | NCI-H522 > 100 µM | OVCAR-3 > 100 µM | SF-295 > 100 µM | SK-OV-3 > 100 µM | SN12C > 100 µM | SW-620 > 100 µM | TK-10 > 100 µM | UO-31 > 100 µM

Cc1cc2c(cc1C)[n+]([O-])c(C(=O)C/C(=N/NC(=O)CC#N)C(=O)Nc1ccccc1C(F)(F)F)c(C)[n+]2[O-]
inactive: A549 35 µM | COLO 205 46.1 µM | HCC 2998 65.5 µM | HOP-62 > 100 µM | K562 35.6 µM | LOX IMVI 53.8 µM | M14 44.2 µM | MOLT-4 52 µM | NCI-H460 34.4 µM | NCI-H522 18.8 µM | OVCAR-3 37 µM | SF-295 95.7 µM | SK-OV-3 > 100 µM | SN12C 76 µM | SW-620 50.6 µM | TK-10 > 100 µM
